Experimental data published in ChEMBL document CHEMBL5518180, “Design, synthesis, and biological evaluation of harmine derivatives as topoisomerase I inhibitors for cancer treatment” (Eur J Med Chem, 2024).
The source made the active and inactive calls. The rule behind the calls is not given here.

Assays:
[1] = Toxicity in BALB/c mouse transplanted with […] cells assessed as change in blood urea nitrogen level at 5 to 20 mg/kg, ip administered for 14 days by biochemical analysis; type: organism-based; conditions: in vivo, 336 h, dose 5-20 mg/kg, time 14 day
[2] = Toxicity in BALB/c mouse transplanted with […] cells assessed as liver damage at 5 to 20 mg/kg, ip administered for 14 days by hematoxylin and eosin staining based analysis; type: organism-based; conditions: in vivo, 336 h, dose 5-20 mg/kg, time 14 day
MCF7 [3] = experiment: Antimigratory activity against human MCF7 cells assessed as wound healing rate at 0.125 uM incubated for 24 hrs by inverted fluorescence microscopic analysis (reference value: 42.5 %); type: functional
4T1 [4] = experiment: Antitumor activity against mouse 4T1 cells transplanted in BALB/c mouse assessed as tumor growth inhibition rate at 5 mg/kg, ip administered for 14 days relative to control; type: functional; conditions: 4T1, 336 h, time 14 day, read-out: TGI
4T1 [5] = experiment: Antitumor activity against mouse 4T1 cells transplanted in BALB/c mouse assessed as tumor growth inhibition rate at 20 mg/kg, ip administered for 14 days relative to control; type: functional; conditions: 4T1, 336 h, time 14 day, read-out: TGI
HepG2 = experiment: Antiproliferative activity against human HepG2 cells assessed as inhibition of cell growth incubated for 48 hrs by MTT assay; type: functional, cell-based; conditions: HepG2, 48 h
MCF7 [6] = experiment: Antimigratory activity against human MCF7 cells assessed as inhibition of recovery of cells from scratch wounds incubated for 24 hrs by inverted fluorescence microscopic analysis; type: functional, cell-based; conditions: dose 0.125-0.5 µM
[7] = Toxicity in BALB/c mouse transplanted with […] cells assessed as kidney damage at 5 to 20 mg/kg, ip administered for 14 days by hematoxylin and eosin staining based analysis; type: organism-based; conditions: in vivo, 336 h, dose 5-20 mg/kg, time 14 day
[8] = Toxicity in BALB/c mouse transplanted with […] cells assessed as change in serum aspartate aminotransferase level at 5 to 20 mg/kg, ip administered for 14 days by biochemical analysis; type: organism-based; conditions: in vivo, 336 h, dose 5-20 mg/kg, time 14 day
MCF7 [9] = experiment: Induction of DNA damage in human MCF7 cells at 1 uM pre-incubated for 24 hrs by Comet assay; type: functional, cell-based
[10] = Toxicity in BALB/c mouse transplanted with […] cells assessed as heart damage at 5 to 20 mg/kg, ip administered for 14 days by hematoxylin and eosin staining based analysis; type: organism-based; conditions: in vivo, 336 h, dose 5-20 mg/kg, time 14 day
MCF7 [11] = experiment: Antimigratory activity against human MCF7 cells assessed as decrease in MMP-2 expression incubated for 24 hrs by Western blotting analysis; type: functional, cell-based; conditions: dose 125-500 nM
MCF7 [12] = experiment: Induction of apoptosis in human MCF7 cells assessed as necrotic cells at 2 uM incubated for 24 hrs by Annexin V-FITC/Propidium Iodide staining based flow cytometry analysis (reference value: 0.082 %); type: functional
MCF7 [13] = experiment: Induction of apoptosis in human MCF7 cells assessed as early apoptotic cells at 2 uM incubated for 24 hrs by Annexin V-FITC/Propidium Iodide staining based flow cytometry analysis (reference value: 2.54 %); type: functional
MCF7 [14] = experiment: Induction of apoptosis in human MCF7 cells assessed as late apoptotic cells at 2 uM incubated for 24 hrs by Annexin V-FITC/Propidium Iodide staining based flow cytometry analysis (reference value: 5.58 %); type: functional
MCF7 [15] = experiment: Induction of DNA double-strand breaks in human MCF7 cells assessed as increase in gamma-H2AX incubated for 48 hrs by DAPI staining based confocal laser scanning microscopy; type: functional, cell-based; conditions: dose 0.25-1 µM
MCF7 [16] = experiment: Antimigratory activity against human MCF7 cells assessed as reduction in penetration of cells in transwell membrane at 0.125 to 0.5 uM incubated for 24 hrs by crystal violet staining based inverted fluorescence microscopic analysis; type: functional, cell-based; conditions: dose 0.125-0.5 µM
4T1 [17] = experiment: Antitumor activity against mouse 4T1 cells transplanted in BALB/c mouse assessed as inhibition of tumor volume at 10 mg/kg, ip administered for 14 days; type: functional, organism-based; conditions: time 14.0 day
[18] = Toxicity in BALB/c mouse transplanted with […] cells assessed as change in body weight at 5 to 20 mg/kg, ip administered for 14 days; type: organism-based; conditions: in vivo, 336 h, dose 5-20 mg/kg, time 14 day
MCF7 [19] = experiment: Induction of apoptosis in human MCF7 cells assessed as necrotic cells at 0.1 uM incubated for 24 hrs by Annexin V-FITC/Propidium Iodide staining based flow cytometry analysis (reference value: 0.082 %); type: functional
PC-3 = experiment: Antiproliferative activity against human PC-3 cells assessed as inhibition of cell growth incubated for 48 hrs by MTT assay; type: functional, cell-based; conditions: PC-3, 48 h
MCF7 [20] = experiment: Antiproliferative activity against human MCF7 cells assessed as inhibition of cell growth incubated for 48 hrs by MTT assay; type: functional, cell-based; conditions: MCF7, 48 h
A549 = experiment: Antiproliferative activity against human A549 cells assessed as inhibition of cell growth incubated for 48 hrs by MTT assay; type: functional, cell-based; conditions: A549, 48 h
MCF7 [21] = experiment: Inhibition of colony formation in human MCF7 cells at 0.075 uM incubated for 2 weeks by crystal violet staining based analysis; type: functional, cell-based
MCF7 [22] = experiment: Antimigratory activity against human MCF7 cells assessed as wound healing rate at 0.5 uM incubated for 24 hrs by inverted fluorescence microscopic analysis (reference value: 42.5 %); type: functional

## O=C(/C=C/c1ccc(Cl)c([N+](=O)[O-])c1)c1nccc2c1[nH]c1ccccc12
[1]
  Activity: Non-Toxic
[2]
  Activity: Non-Toxic
MCF7 [3]
  Activity: 15.3%
4T1 [4]
  inhibition in vivo at 5 mg/kg: 21.7%
4T1 [5]
  inhibition in vivo at 20 mg/kg: 63.9%
HepG2
  IC50: 1610 nM
MCF7 [6]
  Activity: Dose-Dependent Effect
[7]
  Activity: Non-Toxic
[8]
  Activity: Non-Toxic
MCF7 [9]
  Activity: inactive
[10]
  Activity: Non-Toxic
MCF7 [11]
  Activity: Dose-Dependent Effect
MCF7 [12]
  Activity: 0.93%
MCF7 [13]
  Activity: 7.59%
MCF7 [14]
  Activity: 30.8%
MCF7 [15]
  Activity: Dose-Dependent Effect
MCF7 [16]
  Activity: Active
4T1 [17]
  Activity: Active
[18]
  Activity: Non-Toxic
MCF7 [19]
  Activity: 0.12%
PC-3
  IC50: 1170 nM
MCF7 [20]
  IC50: 340 nM
A549
  IC50: 2020 nM
MCF7 [21]
  inhibition: Active
MCF7 [22]
  Activity: 1.4%
